Laboratory results: patent US8466163B2 (Bionomics Limited, priority 2006, dated 2013)

Key:
tubulin = assay: Tubulin polymerisation inhibitor (TPI) assay; type: biochemical; conditions: concentration required to inhibit the extent of tubulin polymerisation by 50%
[1] = test system: Activated human umbilical vein endothelial cells (HUVECs); assay: Inhibition of proliferation of activated HUVEC cells; type: cell-based; conditions: concentration required to inhibit proliferation by 50%, value falls within the range of concentrations given or >1000 nM

Row | Molecule | IC50 (tubulin) [nM] | IC50 ([1]; Homo sapiens, HUVEC) [nM] | IC50 [1] [nM]
1 | COc1ccc(-c2sc3nc(SC)ncc3c2C(=O)c2cc(OC)c(OC)c(OC)c2)cc1 [Example 18, 2-Thiomethoxy-6-(4-methoxyphenyl)-5-(3,4,5-trimethoxybenzoyl)-thiopheno [2,3-d]pyrimidine] | > 40000 |  | 
2 | COc1ccc(-c2oc3[nH]c(=O)ccc3c2-c2cc(OC)c(OC)c(OC)c2)cc1 [Example 26, 2-(4-Methoxyphenyl)-3-(3,4,5-trimethoxyphenyl)furo[2,3-b]pyridin-6-one] |  | 100 to 1000 | 
3 | COc1ccc(-c2sc3nc(OC)ncc3c2C(=O)c2cc(OC)c(OC)c(OC)c2)cc1 [Example 19, 2-Methoxy-6-(4-methoxyphenyl)-5-(3,4,5-trimethoxybenzoyl)-thiopheno[2,3-d]pyrimidine] | > 40000 | > 1000 | 
4 | COc1ccc(-c2oc3[nH]c(=O)ncc3c2-c2cc(OC)c(OC)c(OC)c2)cc1 [Example 1] | 2000 | 10 to 100 | 
5 | COc1cc(C(=O)c2c(-c3cnn(C)c3)oc3c(=O)c(OC)c[nH]c23)cc(OC)c1OC [Example 30, 6-Methoxy-2-(1-methyl-1H-pyrazol-4-yl)-3-(3,4,5-trimethoxybenzoyl)-4H-furo[3,2-b]pyridin-7-one] |  | > 1000 | 
6 | COc1ccc(-c2oc3cc(OC)ncc3c2C(=O)c2cc(OC)c(OC)c(OC)c2)cc1 [Example 24, 6-methoxy-2-(4-methoxyphenyl)-3-(3,4,5-trimethoxybenzoyl)furo[3,2-c]pyridine] | < 4000 | 100 to 1000 | 
7 | COc1ccc(-c2oc3nc(OC)cnc3c2C(=O)c2cc(OC)c(OC)c(OC)c2)cc1 [Example 25, 3-methoxy-6-(4-methoxyphenyl)-7-(3,4,5-trimethoxybenzoyl)furo[2,3-b]pyrazine] | < 4000 | 10 to 100 | 
8 | COc1ccc(-c2oc3[nH]c(=O)ncc3c2-c2cc(OC)c(OC)c(OC)c2)cc1O [Example 7, 6-(3-Hydroxy-4-methoxy-phenyl)-5-(3,4,5-trimethoxy-phenyl)-1H-furo[2,3-d]pyrimidinone] |  | 10 to 100 | 
9 | COc1ccc(-c2oc3[nH]c(=O)ncc3c2-c2cc(OC)c(OC)c(OC)c2)c(O)c1O [Example 8, 6-(2,3-Dihydroxy-4-methoxy-phenyl)-5-(3,4,5-trimethoxy-phenyl)-1H-furo[2,3-d]pyrimidin-2-one] |  | > 1000 | 
10 | COc1ccc(-c2oc3nc(OC)ncc3c2-c2cc(OC)c(OC)c(OC)c2)cc1 [Example 17, 2-Methoxy-6-(4-methoxyphenyl)-5-(3,4,5-trimethoxyphenyl)-furo[2,3-d]pyrimidine] | > 40000 |  | 
11 | 6-(3-amino-4-methoxyphenyl)-5-(3-hydroxy-4,5-dimethoxyphenyl)furo[2,3-d]pyrimidin-2(1H)-one hydrochloride [Example 10] |  |  | > 1000
12 | COc1ccc(-c2oc3cc(OC)cnc3c2-c2cc(OC)c(OC)c(OC)c2)cc1 [Example 23, 6-methoxy-2-(4-methoxyphenyl)-3-(3,4,5-trimethoxyphenyl)furo[3,2-b]pyridine] | ~10000 | > 1000 | 
13 | COc1ccc(-c2oc3c(cnc(=O)n3C)c2C(=O)c2cc(OC)c(OC)c(OC)c2)cc1 [Example 15] | > 40000 |  | 
14 | COc1ccc(-c2oc3[nH]c(=O)ncc3c2-c2cc(OC)c(OC)c(OC)c2)cn1 [Example 5, 6-(6-methoxypyridin-3-yl)-5-(3,4,5-trimethoxyphenyl)furo[2,3-d]pyrimidin-2(1H)-one] |  | 100 to 1000 | 
15 | COc1cc(-c2c(-c3ccco3)oc3[nH]c(=O)ncc23)cc(OC)c1OC [Example 3, 6-(2-furyl)-5-(3,4,5-trimethoxyphenyl)furo[2,3-d]pyrimidin-2(11)-one] |  | > 1000 | 
16 | COc1ccc(-c2oc3nc(OC)ccc3c2-c2cc(OC)c(OC)c(OC)c2)cc1 [Example 21, 6-methoxy-2-(4-methoxyphenyl)-3-(3,4,5-trimethoxyphenyl)furo[2,3-b]pyridine] | > 40000 |  | 
17 | COc1ccc(-c2oc3cc(OC)cnc3c2C(=O)c2cc(OC)c(OC)c(OC)c2)cc1 [Example 22, 6-methoxy-2-(4-methoxyphenyl)-3-(3,4,5-trimethoxybenzoyl)furo [3,2-b]pyridine] | < 4000 | 100 to 1000 | 
18 | COc1ccc(-c2oc3[nH]c(=O)ncc3c2C(=O)c2cc(OC)c(OC)c(OC)c2)cc1 [Example 13] | > 40000 |  | 
19 | COc1ccc(-c2oc3nc(OC)ccc3c2C(=O)c2cc(OC)c(OC)c(OC)c2)cc1 [Example 20, 6-methoxy-2-(4-methoxyphenyl)-3-(3,4,5-trimethoxybenzoyl)furo[2,3-b]pyridine] | ~2000 | 100 to 1000 | 
20 | COc1ccc(-c2c(-c3cc(OC)c(OC)c(OC)c3)oc3[nH]c(=O)ncc23)cc1 [Example 2, 6-(2-(3,4,5-trimethoxyphenyl))-5-(4-methoxyphenyl)furo[2,3-d]pyrimidin-2(1H)-one] | 4000 to 10000 | 100 to 1000 | 
21 | COc1ccc(-c2oc3c(Br)c(OC)cnc3c2C(=O)c2cc(OC)c(OC)c(OC)c2)cc1 [Example 28, 7-Bromo-6-methoxy-2-(4-methoxyphenyl)-3-(3,4,5-trimethoxybenzoyl)-furo[3,2-b]pyridine] |  | 100 to 1000 | 
22 | COc1cc(-c2c(-c3ccc4c(ccn4C)c3)oc3[nH]c(=O)ncc23)cc(OC)c1OC [Example 4, 6-(1-Methyl-1H-indol-5-yl)-5-(3,4,5-trimethoxy-phenyl)-1H-furo[2,3-d]pyrimidin-2-one] |  | 1 to 10 | 
23 | COc1ccc(-c2oc3nc(Cl)ncc3c2-c2cc(OC)c(OC)c(OC)c2)cc1 [Example 16, 2-Chloro-6-(4-methoxyphenyl)-5-(3,4,5-trimethoxy-phenyl)-furo[2,3-d]pyrimidine] | 10000 to 40000 |  | 
24 | COc1ccc(-c2oc3nc(OC)ncc3c2C(=O)c2cc(OC)c(OC)c(OC)c2)cc1 [Example 27] |  | 100 to 1000 | 
